# Laboratory results reported in ChEMBL document CHEMBL4609992, “Discovery of novel small molecule induced selective degradation of the bromodomain and extra-terminal (BET) bromodomain protein BRD4 and BRD2 with cellular potencies” (Bioorg Med Chem, 2020).
# Active and inactive are the calls of the source. No cut-off for these calls is given here.
# Legend:
# [1] = test system: TT; experiment: Antiproliferative activity against human TT cells assessed as reduction in cell viability; type: functional, cell-based
# [2] = test system: HL-60(TB); experiment: Growth inhibition of human HL-60(TB) cells assessed as cell growth inhibition incubated for 48 hrs by sulforhodamine B assay; type: functional; details: HL-60, 48 h
# [3] = biological target: Protein cereblon/Bromodomain-containing protein 3/Cullin-4A (Homo sapiens, UniProt Q15059+Q96SW2+Q13619); experiment: Protac activity at cereblon/cullin4A/BRD3 in human MV4-11 cells assessed as induction of BRD3 degradation at 50 nM measured after 18 hrs by Western blot analysis; type: cell-based; details: mv4-11, 18 h, 0.05 µM
# Protein cereblon/Bromodomain-containing protein 3/Cullin-4A, sequence (Q15059 whole entry): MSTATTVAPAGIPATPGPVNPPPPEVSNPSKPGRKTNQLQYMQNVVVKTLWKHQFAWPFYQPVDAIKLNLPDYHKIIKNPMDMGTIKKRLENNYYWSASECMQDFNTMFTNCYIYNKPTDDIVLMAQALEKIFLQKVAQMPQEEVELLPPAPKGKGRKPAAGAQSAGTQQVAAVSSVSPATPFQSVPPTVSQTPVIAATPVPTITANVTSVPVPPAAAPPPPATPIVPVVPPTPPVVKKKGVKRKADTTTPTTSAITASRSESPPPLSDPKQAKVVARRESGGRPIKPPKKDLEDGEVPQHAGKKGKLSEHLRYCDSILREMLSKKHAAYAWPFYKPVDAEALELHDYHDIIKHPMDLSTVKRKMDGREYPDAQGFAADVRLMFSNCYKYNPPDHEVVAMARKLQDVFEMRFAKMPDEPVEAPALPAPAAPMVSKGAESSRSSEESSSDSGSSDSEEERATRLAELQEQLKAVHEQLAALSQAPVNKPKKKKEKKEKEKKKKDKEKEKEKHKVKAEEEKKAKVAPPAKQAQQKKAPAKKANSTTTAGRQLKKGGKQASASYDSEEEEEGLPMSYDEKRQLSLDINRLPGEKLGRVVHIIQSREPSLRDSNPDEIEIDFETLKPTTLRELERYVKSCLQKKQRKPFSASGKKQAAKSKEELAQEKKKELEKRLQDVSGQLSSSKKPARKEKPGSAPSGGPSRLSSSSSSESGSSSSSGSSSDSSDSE
# Protein cereblon/Bromodomain-containing protein 3/Cullin-4A, sequence (Q96SW2 whole entry): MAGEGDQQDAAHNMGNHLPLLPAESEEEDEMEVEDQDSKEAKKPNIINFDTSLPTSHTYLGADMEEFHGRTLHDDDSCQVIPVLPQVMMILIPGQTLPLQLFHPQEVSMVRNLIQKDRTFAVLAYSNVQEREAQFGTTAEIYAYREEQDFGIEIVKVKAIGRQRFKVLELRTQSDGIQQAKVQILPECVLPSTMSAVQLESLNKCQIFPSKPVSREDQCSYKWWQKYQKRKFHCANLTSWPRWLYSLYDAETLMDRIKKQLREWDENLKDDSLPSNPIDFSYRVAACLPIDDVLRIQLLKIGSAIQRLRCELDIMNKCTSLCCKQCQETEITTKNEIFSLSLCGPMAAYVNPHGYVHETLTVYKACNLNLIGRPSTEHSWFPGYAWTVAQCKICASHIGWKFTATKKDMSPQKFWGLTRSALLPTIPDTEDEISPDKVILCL
# Protein cereblon/Bromodomain-containing protein 3/Cullin-4A, sequence (Q13619 whole entry): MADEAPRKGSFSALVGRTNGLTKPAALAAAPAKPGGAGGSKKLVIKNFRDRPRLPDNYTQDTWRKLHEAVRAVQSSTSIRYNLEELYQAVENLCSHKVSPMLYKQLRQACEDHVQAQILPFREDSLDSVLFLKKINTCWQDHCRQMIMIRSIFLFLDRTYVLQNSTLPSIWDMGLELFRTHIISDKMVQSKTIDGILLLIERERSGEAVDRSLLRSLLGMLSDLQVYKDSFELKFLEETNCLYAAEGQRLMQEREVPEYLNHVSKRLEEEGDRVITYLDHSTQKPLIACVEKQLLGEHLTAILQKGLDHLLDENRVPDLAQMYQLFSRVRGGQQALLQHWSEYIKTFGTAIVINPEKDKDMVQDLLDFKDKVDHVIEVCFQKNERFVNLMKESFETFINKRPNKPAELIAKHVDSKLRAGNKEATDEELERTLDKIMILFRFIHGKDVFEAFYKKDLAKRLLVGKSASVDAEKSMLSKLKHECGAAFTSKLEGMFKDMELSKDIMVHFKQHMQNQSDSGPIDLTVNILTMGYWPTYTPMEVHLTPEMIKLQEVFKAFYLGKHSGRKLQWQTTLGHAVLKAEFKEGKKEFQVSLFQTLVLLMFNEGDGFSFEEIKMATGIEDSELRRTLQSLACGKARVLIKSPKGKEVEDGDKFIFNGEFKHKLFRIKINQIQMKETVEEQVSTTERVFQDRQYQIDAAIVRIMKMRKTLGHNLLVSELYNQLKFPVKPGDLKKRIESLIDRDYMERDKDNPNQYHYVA
# [4] = test system: UACC-62; experiment: Growth inhibition of human UACC62 cells assessed as cell growth inhibition incubated for 48 hrs by sulforhodamine B assay; type: functional; details: UACC-62, 48 h
# [5] = test system: OVCAR-3; experiment: Growth inhibition of human OVCAR3 cells assessed as cell growth inhibition incubated for 48 hrs by sulforhodamine B assay; type: functional; details: OVCAR-3, 48 h
# [6] = test system: MV4-11; experiment: Induction of apoptosis in human MV4-11 cells at < 100 nM measured after 24 hrs by Annexin V-FITC/propidium iodide staining based FACScan flow cytometry relative to control; type: functional
# [7] = test system: RXF 393; experiment: Growth inhibition of human RXF393 cells assessed as cell growth inhibition incubated for 48 hrs by sulforhodamine B assay; type: functional; details: RXF 393, 48 h
# [8] = test system: HCC827; experiment: Antiproliferative activity against human HCC827 cells assessed as reduction in cell viability; type: functional, cell-based
# [9] = biological target: Protein cereblon/Bromodomain-containing protein 2/Cullin-4A (Homo sapiens) (UniProt P25440+Q96SW2+Q13619); experiment: Protac activity at cereblon/cullin4A/BRD2 in human MV4-11 cells assessed as induction of BRD2 degradation at 50 nM measured after 18 hrs by Western blot analysis; type: cell-based
# Protein cereblon/Bromodomain-containing protein 2/Cullin-4A (Homo sapiens), sequence (P25440 whole entry, looked up): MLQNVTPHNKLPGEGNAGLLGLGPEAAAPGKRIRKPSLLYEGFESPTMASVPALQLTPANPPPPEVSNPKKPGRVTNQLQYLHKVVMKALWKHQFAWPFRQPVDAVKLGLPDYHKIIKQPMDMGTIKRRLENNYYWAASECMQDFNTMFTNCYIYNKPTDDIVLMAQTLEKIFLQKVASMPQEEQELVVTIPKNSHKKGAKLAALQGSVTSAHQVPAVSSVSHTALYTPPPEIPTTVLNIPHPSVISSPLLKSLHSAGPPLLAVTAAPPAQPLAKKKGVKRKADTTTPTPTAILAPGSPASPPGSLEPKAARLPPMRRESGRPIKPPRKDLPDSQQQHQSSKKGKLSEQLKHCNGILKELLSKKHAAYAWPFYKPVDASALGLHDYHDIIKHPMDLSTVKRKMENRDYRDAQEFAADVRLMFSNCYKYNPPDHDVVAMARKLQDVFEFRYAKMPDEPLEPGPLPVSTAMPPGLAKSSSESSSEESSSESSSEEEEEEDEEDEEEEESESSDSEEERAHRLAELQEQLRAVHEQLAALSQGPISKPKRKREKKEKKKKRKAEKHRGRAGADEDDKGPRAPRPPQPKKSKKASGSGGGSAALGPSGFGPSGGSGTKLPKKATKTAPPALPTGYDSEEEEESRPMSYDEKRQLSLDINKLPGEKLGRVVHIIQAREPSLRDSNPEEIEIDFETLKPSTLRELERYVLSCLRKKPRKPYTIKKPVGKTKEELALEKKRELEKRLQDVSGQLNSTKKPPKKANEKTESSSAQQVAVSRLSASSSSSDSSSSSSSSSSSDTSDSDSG
# Protein cereblon/Bromodomain-containing protein 2/Cullin-4A (Homo sapiens), sequence (Q13619 whole entry, looked up): as the sequence (Q13619 whole entry) above
# Protein cereblon/Bromodomain-containing protein 2/Cullin-4A (Homo sapiens), sequence (Q96SW2 whole entry, looked up): as the sequence (Q96SW2 whole entry) above
# [10] = test system: SN12C; experiment: Growth inhibition of human SN12C cells assessed as cell growth inhibition incubated for 48 hrs by sulforhodamine B assay; type: functional
# [11] = test system: NCI-H226; experiment: Growth inhibition of human NCI-H226 cells assessed as cell growth inhibition incubated for 48 hrs by sulforhodamine B assay; type: functional; details: NCI-H226, 48 h
# [12] = test system: SF-539; experiment: Growth inhibition of human SF539 cells assessed as cell growth inhibition incubated for 48 hrs by sulforhodamine B assay; type: functional; details: SF-539, 48 h
# [13] = test system: COLO 205; experiment: Antiproliferative activity against human COLO205 cells assessed as reduction in cell viability; type: functional, cell-based
# [14] = test system: A549; experiment: Antiproliferative activity against human A549 cells assessed as reduction in cell viability; type: functional, cell-based
# [15] = test system: MDA-MB-435; experiment: Growth inhibition of human MDA-MB-435 cells assessed as cell growth inhibition incubated for 48 hrs by sulforhodamine B assay; type: functional; details: MDA-MB-435, 48 h
# [16] = test system: HOP-62; experiment: Growth inhibition of human HOP62 cells assessed as cell growth inhibition incubated for 48 hrs by sulforhodamine B assay; type: functional; details: HOP-62, 48 h
# [17] = test system: MV4-11; experiment: Induction of apoptosis in human MV4-11 cells measured after 24 hrs by Annexin V-FITC/propidium iodide staining based FACScan flow cytometry; type: functional, cell-based
# [18] = test system: MOLM-13; experiment: Antiproliferative activity against human MOLM13 cells assessed as reduction in cell viability measured after 48 hrs by CellTiter-Glo assay; type: functional, cell-based; details: MOLM-13, 48 h
# [19] = test system: NCI-H322M; experiment: Growth inhibition of human NCI-H322M cells assessed as cell growth inhibition incubated for 48 hrs by sulforhodamine B assay; type: functional
# [20] = test system: MOLT-4; experiment: Growth inhibition of human MOLT4 cells assessed as cell growth inhibition incubated for 48 hrs by sulforhodamine B assay; type: functional; details: MOLT-4, 48 h
# [21] = test system: 786-0; experiment: Growth inhibition of human 786-0 cells assessed as cell growth inhibition incubated for 48 hrs by sulforhodamine B assay; type: functional; details: 786-0, 48 h
# [22] = test system: A549; experiment: Growth inhibition of human A549/ATCC cells assessed as cell growth inhibition incubated for 48 hrs by sulforhodamine B assay; type: functional; details: A549, 48 h
# [23] = test system: MV4-11; experiment: Antiproliferative activity against human MV4-11 cells assessed as reduction in cell viability; type: functional, cell-based
# [24] = test system: LNCaP-Clone-FGC; experiment: Antiproliferative activity against human LNCaP-FGC cells assessed as reduction in cell viability; type: functional, cell-based
# [25] = biological target: T1, Protein cereblon/Bromodomain-containing protein 4/Cullin-4A (Homo sapiens) (UniProt O60885+Q96SW2+Q13619); experiment: Protac activity at cereblon/cullin4A/BRD4 in human MV4-11 cells assessed as induction of BRD4 degradation at 10 nM measured after 18 hrs by Western blot analysis; type: cell-based
# [26] = test system: M14; experiment: Growth inhibition of human M14 cells assessed as cell growth inhibition incubated for 48 hrs by sulforhodamine B assay; type: functional; details: M14, 48 h
# [27] = test system: NCI-H522; experiment: Growth inhibition of human NCI-H522 cells assessed as cell growth inhibition incubated for 48 hrs by sulforhodamine B assay; type: functional; details: NCI-H522, 48 h
# [28] = test system: SK-OV-3; experiment: Growth inhibition of human SKOV3 cells assessed as cell growth inhibition incubated for 48 hrs by sulforhodamine B assay; type: functional; details: SK-OV-3, 48 h
# [29] = test system: SK-MEL-28; experiment: Growth inhibition of human SK-MEL-28 cells assessed as cell growth inhibition incubated for 48 hrs by sulforhodamine B assay; type: functional; details: SK-MEL-28, 48 h
# [30] = biological target: T1, Protein cereblon/Bromodomain-containing protein 4/Cullin-4A (Homo sapiens); experiment: Protac activity at cereblon/cullin4A/BRD4 in human MV4-11 cells assessed as induction of BRD4 degradation at 1 to 500 nM measured after 18 hrs by Western blot analysis; type: cell-based
# [31] = test system: NCI-H358; experiment: Antiproliferative activity against human NCI-H358 cells assessed as reduction in cell viability; type: functional, cell-based
# [32] = test system: TK-10; experiment: Growth inhibition of human TK10 cells assessed as cell growth inhibition incubated for 48 hrs by sulforhodamine B assay; type: functional; details: TK-10, 48 h
# [33] = test system: PC-3; experiment: Growth inhibition of human PC3 cells assessed as cell growth inhibition incubated for 48 hrs by sulforhodamine B assay; type: functional; details: PC-3, 48 h
# [34] = test system: SK-MEL-2; experiment: Growth inhibition of human SK-MEL-2 cells assessed as cell growth inhibition incubated for 48 hrs by sulforhodamine B assay; type: functional; details: SK-MEL-2, 48 h
# [35] = test system: EKVX; experiment: Growth inhibition of human EKVX cells assessed as cell growth inhibition incubated for 48 hrs by sulforhodamine B assay; type: functional
# [36] = test system: HCC 2998; experiment: Growth inhibition of human HCC2998 cells assessed as cell growth inhibition incubated for 48 hrs by sulforhodamine B assay; type: functional; details: HCC 2998, 48 h
# [37] = test system: OVCAR-5; experiment: Growth inhibition of human OVCAR5 cells assessed as cell growth inhibition incubated for 48 hrs by sulforhodamine B assay; type: functional; details: OVCAR-5, 48 h
# [38] = test system: RPMI-8226; experiment: Antiproliferative activity against human RPMI8226 cells assessed as reduction in cell viability; type: functional, cell-based
# [39] = test system: LOX IMVI; experiment: Growth inhibition of human LOXIMVI cells assessed as cell growth inhibition incubated for 48 hrs by sulforhodamine B assay; type: functional
# [40] = test system: HOP-92; experiment: Growth inhibition of human HOP92 cells assessed as cell growth inhibition incubated for 48 hrs by sulforhodamine B assay; type: functional; details: HOP-92, 48 h
# [41] = test system: RPMI-8226; experiment: Growth inhibition of human RPMI8226 cells assessed as cell growth inhibition incubated for 48 hrs by sulforhodamine B assay; type: functional; details: RPMI-8226, 48 h
smiles,measurement,setting,value
COc1ccccc1S(=O)(=O)Nc1ccc2c3c(cc(CCC(=O)NCCCCNc4cccc5c4C(=O)N(C4CCC(=O)NC4=O)C5=O)cc13)C(=O)N2C (stereo unspecified),IC50,[1],37.4 nM
same,GI50,[2],22 nM
same,Activity,[3],Not Active
same,GI50,[4],5450 nM
same,GI50,[5],1830 nM
same,Activity,[6],80%
same,GI50,[7],864 nM
same,IC50,[8],580 nM
same,Activity,[9],Active
same,GI50,[10],447 nM
same,GI50,[11],456 nM
same,GI50,[12],752 nM
same,IC50,[13],156 nM
same,IC50,[14],13700 nM
same,GI50,[15],819 nM
same,GI50,[16],416 nM
same,Activity,[17],Dose-dependent effect
same,IC50,[18],52 nM
same,GI50,[19],355 nM
same,GI50,[20],31 nM
same,GI50,[21],2110 nM
same,GI50,[22],5260 nM
same,IC50,[23],9.79 nM
same,IC50,[24],910 nM
same,Activity,[25],Active
same,GI50,[26],937 nM
same,GI50,[27],2740 nM
same,GI50,[28],1630 nM
same,GI50,[29],891 nM
same,Activity,[30],Active
same,IC50,[31],1380 nM
same,GI50,[32],895 nM
same,GI50,[33],248 nM
same,GI50,[34],1120 nM
same,GI50,[35],7480 nM
same,GI50,[36],316 nM
same,GI50,[37],2740 nM
same,IC50,[38],440 nM
same,GI50,[39],3970 nM
same,GI50,[40],26 nM
same,GI50,[41],683 nM
